The subject of assay [1] is COVID-19 patients. Conditions: treatment of COVID-19; cited from earlier work.
Assay [2] concerns platelets isolated from blood of healthy donors. Nature of the assay: Flow cytometry of surface expression of activation markers CD62p and CD63 on platelets. Type of assay: cell-based, human. Conditions: platelets pre-treated 24 h with 10 µM ivacaftor or 5 µM forskolin prior to 50 µM ADP, 50 µM TRAP6 or 5 µM PAF. The procedure:
Flow Cytometry: Blood samples were collected and stained as previously described3. In brief, blood was directly stained in dilution buffer (NaCl 137 mM, KCl 2.7 mM, MgCl2 1 mM, 4-(2-hydroxyethyl)-1-piperazineethanesulfonic acid (HEPES) 20 mM, glucose 5.6 mM, bovine serum albumin 1 g/l, pH 7.4.) containing mouse anti-human anti-CD42b (GPlb) Phycoerythrin (PE, clone HIP1), anti-CD62p (P-selectin) Phycoerythrin-Cyanine 7 (PE/Cy7, clone AK4), anti-CD63 (GP53) and Brilliant Violet 421 (clone H5C6), all from BioLegend (San Diego, CA, USA), before cells were fixed with 2 mL of 0.2% PFA in PBS. In order to analyze isolated platelets, total citrate blood was centrifuged at 150 g for 15 min to separate platelet rich plasma (PRP) from blood cells. PRP was collected and centrifuged again at 1000 g for 15 min. Platelets were subsequently resuspended in 10% CPDA buffer in PBS (Sigma-Aldrich (St. Louis, MO, USA)) and incubated for 24 h in the presence of either vehicle (DMSO, Sigma-Aldrich (St. Louis, MO, USA)), 10 µM ivacaftor (Cayman Chemicals, Ann Arbor, MI, USA)) or 5 µM forskolin (Fisher Scientific (Pittsburgh, PA, USA)) before staining was applied as described above. […] All measurements were analyzed with FlowJo (version 8, Tree Star, Inc., Ashland, OR, USA).
(In general: Flow cytometry measures light scatter and fluorescence of single cells or particles in a stream.)

The subject of assay [3] is platelets of healthy donors or severe COVID-19 patients. Description: Analysis of Ca2+ transients (Indo-1 AM, FACS). The format is cell-based, human. The note with it: 10 µM ivacaftor pretreatment; ADP, TRAP6 or PAF; healthy donors and severe COVID-19; except TRAP6 stimulated healthy platelets. The procedure: Analysis of Ca2+ transients: Platelet rich plasma (PRP) was stained with anti-CD42b, and loaded with Indo-1 AM (Invitrogen, Waltham, MA, USA)) for 30 min at 37° C. together in the presence of either vehicle (DMSO, 10 µM ivacaftor or 5 µM forskolin) under mild agitation. Stained PRP was diluted in Tyrode's Buffer (134 mM NaCl, 12 mM NaHCO3, 2.90 mM KCl, 0.34 mM Na2HPO4, 3 mM MgCl2, 2 mM CaCI2, 20 mM HEPES, 5 mM Glucose, pH 7.4.) complemented with heparin and […] before the fluorescence ratio of Ca2+-bound Indo-1 (405 nm) to Ca2+-unbound Indo-1 (530 nm) of CD42b+ platelets was monitored on a FACSymphony™ A5 (BD Biosciences, Franklin Lakes, NJ, USA) equipped with a ultraviolet (355 nm), violet (405 nm), blue (488 nm), yellow (561 nm), and red (637 nm) solid-state laser. After basal Ca2+ concentrations were monitored for 30 s, platelets were stimulated with either 5 μM PAF (Tocris Bioscience (Bristol, England, GB)), 50 μM ADP (Sigma-Aldrich, St. Louis, MO, USA) or 50 μM TRAP-6 (purchased from Cayman Chemicals (Ann Arbor, MI, USA)) before changes in intracellular Ca2+ concentration ([Ca2+] i) were monitored for additional 2 min. Results are expressed in arbitrary units as areaunder the curve (AUC).

Assay [4] has as its system platelets from COVID-19 patients and healthy donors (hirudin whole blood). Nature of the assay: Multiple Electrode Aggregometry (Multiplate analyzer). The format is cell-based, human. Conditions: 10 µM ivacaftor 15 min, ADP, TRAP6 or PAF, significance only for individual agonist-platelet combinations. The procedure:
Multiple Electrode Aggregometry: Whole blood impedance measurement using Multiple Electrode Aggregometry (MEA) was performed on the Multiplate® analyzer by Roche (Basel, Switzerland)). Hirudin whole blood samples were treated with either vehicle (DMSO), 10 µM ivacaftor or 5 μM forskolin for 15 min at 37° C.

In assay [5] the test system is platelets in whole blood of COVID-19 patients and healthy donors. Description: Vascular Injury Flow Assay (platelet adhesion on collagen IV). Type of assay: cell-based, human. On the procedure:
Vascular Injury Flow Assay: Citrated blood was stained with anti-CD42b ((GPlb) Allophycocyanin (APC, clone REA 185, Miltenyi Biotec, Bergisch Gladbach, Germany)) and treated with either vehicle (DMSO), 10 μM ivacaftor or 5 µM forskolin for 15 min at 37° C. before the microfluidic flow assay was performed as previously described2. In brief, pretreated whole blood was diluted 1:4 with modified Tyrode's Buffer (134 mM NaCl, 12 mM NaHCO3, 2.90 mM KCl, 0.34 mM Na2HPO4, 3 mM MgCl2, 2.1 mM CaCl2), 20 mM HEPES, 5 mM Glucose, 1 g/l BSA, adjusted to a pH of 7.4.) immediately before perfusion with a flow rate of 20 mL/h for 5 min through collagen IV coated microchannel flow chambers (6 Channel μ-Slide VI 0.4, Ibidi, Martinsried, Germany). After perfusion, cells were fixed with 4% PFA for 30 min and washed thoroughly with PBS. Five randomly selected regions of interest (ROI) for each experimental condition were imaged with an Invitrogen™ EVOS™ fluorescent microscope and quantification of the total CD42b+ covered area was carried out with ImageJ (Version […] by the US National Institutes of Health and the LOCI, University of Wisconsin).

“Also recorded” adds a separate entry of the source.

Take `CC(=O)Oc1ccccc1C(=O)O` [aspirin]: in assay [1], the “reduction in thromboembolic events” value is recorded as “failed to yield a significant reduction; also recorded: failed to show a significant reduction”.

Take `COc1ccc(-n2nc(C(N)=O)c3c2C(=O)N(c2ccc(N4CCCCC4=O)cc2)CC3)cc1` [apixaban]: the “reduction in thromboembolic events” value in assay [1] is given as “failed to yield a significant reduction”.

Take `CC(C)(C)c1cc(C(C)(C)C)c(NC(=O)c2c[nH]c3ccccc3c2=O)cc1O` [ivacaftor, N-(5-hydroxy-15 2,4-ditert-butyl-phenyl)-4-oxo-1 H-quinoline-3-carboxamide]: in assay [2], the “agonist-induced upregulation of CD62p and CD63 (platelet activation)” value is reported as “prevented; also recorded: attenuates; also recorded: normalized”. For the same compound, in assay [3], the “agonist-induced [Ca2+]i increase (AUC)” value was “attenuates; also recorded: significant reduction; also recorded: significantly attenuated”. Besides, the “agonist-induced aggregation of platelets (AUC)” value is on record as “reduces; also recorded: general trend to reduce; also recorded: attenuates” in assay [4] and “significantly attenuates” in assay [4] (listed as Ivacaftor). Besides, in assay [5] (10 μM ivacaftor 15 min, ADP, TRAP-6 or PAF, significance for most agonist-platelet combinations), the “agonist-induced platelet adhesion (CD42b+ total area)” value is listed as “reduces; also recorded: general trend to reduce; also recorded: attenuates”. Besides, the “adhesion of both unstimulated and stimulated platelets” value in assay [5] (whole blood of severe COVID-19 patients) is reported as “reduced”.

The values are drawn from patent US20250177371A1, “CFTR MODULATORS FOR THE TREATMENT OF VASCULAR DISEASE” (priority 2022, published 2025).
